Data from PubChem BioAssay AID504572 (Johns Hopkins Ion Channel Center, 2011).

Target: Short transient receptor potential channel 6 (Mus musculus) (UniProt Q61143)
Experiment: potency of TRPC6 cation channel blockers – HEK293 cells, membrane potential dye, IC50, SAR follow-up (AID 504572)
Settings: acetylcholine-evoked membrane potential dye, FDSS;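 active = compounds blocking the acetylcholine-driven TRPC6 membrane potential signal by over 30% at some dose, with a fitted dose-response curve; inactive = the rest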

Short transient receptor potential channel 6 (Mus musculus), sequence (Q61143 whole entry, looked up): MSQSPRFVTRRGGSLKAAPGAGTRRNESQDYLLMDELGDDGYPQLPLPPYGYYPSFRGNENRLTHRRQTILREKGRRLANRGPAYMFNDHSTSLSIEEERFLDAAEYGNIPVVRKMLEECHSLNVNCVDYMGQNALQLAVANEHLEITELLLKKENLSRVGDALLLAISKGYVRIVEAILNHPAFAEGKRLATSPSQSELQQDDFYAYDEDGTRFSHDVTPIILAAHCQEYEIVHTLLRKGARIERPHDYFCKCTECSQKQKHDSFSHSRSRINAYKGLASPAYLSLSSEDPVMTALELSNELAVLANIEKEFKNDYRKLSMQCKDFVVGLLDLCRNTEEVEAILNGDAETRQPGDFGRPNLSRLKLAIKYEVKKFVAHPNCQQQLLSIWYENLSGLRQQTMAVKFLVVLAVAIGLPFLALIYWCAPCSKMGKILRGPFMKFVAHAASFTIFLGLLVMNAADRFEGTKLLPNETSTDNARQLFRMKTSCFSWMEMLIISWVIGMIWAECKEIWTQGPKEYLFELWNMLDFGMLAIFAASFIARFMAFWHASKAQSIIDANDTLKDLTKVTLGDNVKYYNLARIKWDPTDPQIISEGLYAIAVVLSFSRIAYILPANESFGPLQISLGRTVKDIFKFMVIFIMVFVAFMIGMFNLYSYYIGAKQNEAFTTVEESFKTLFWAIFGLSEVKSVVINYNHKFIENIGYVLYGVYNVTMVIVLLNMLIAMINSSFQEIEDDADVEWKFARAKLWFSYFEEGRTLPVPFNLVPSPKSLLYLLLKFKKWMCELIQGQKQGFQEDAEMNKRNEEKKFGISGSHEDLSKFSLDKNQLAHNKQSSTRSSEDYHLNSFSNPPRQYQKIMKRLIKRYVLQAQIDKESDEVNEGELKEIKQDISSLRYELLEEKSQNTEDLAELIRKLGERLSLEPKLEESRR

IC50, active:
CCOc1ccc(CNc2ccc3c(c2)ncn3C(C)(C)C)cc1 2.51 µM, CCOc1ccccc1CNc1ccc2c(c1)ncn2C(C)(C)C 2.16 µM, CC(C)(C)n1cnc2cc(NCc3ccc(Cl)cc3Cl)ccc21 6.42 µM, CC(C)(C)n1cnc2cc(NCc3ccccc3Cl)ccc21 4.76 µM, COc1ccc(OC)c(CNc2ccc3c(c2)ncn3C(C)(C)C)c1 2.7 µM, COc1ccccc1CNc1ccc2c(c1)ncn2C(C)(C)C 5.54 µM
